Results published in publication PMC6098982 (Natural product research, 2018).

What was measured:
[1] = test system: Escherichia coli; assay: Inhibition of Escherichia coli; type: cell-based
[2] = biological target: Delta opioid receptor (Homo sapiens, UniProt P41143); assay: Delta opioid receptor displacement; type: binding
[3] = biological target: Mu opioid receptor (Homo sapiens, UniProt P35372); assay: Mu opioid receptor displacement; type: binding
[4] = test system: Trypanosoma brucei; assay: Inhibition of Trypanosoma brucei; type: cell-based
[5] = biological target: CB2 receptor (Homo sapiens, UniProt P34972); assay: CB2 receptor displacement; type: binding
CB2 receptor, sequence (P34972 whole entry): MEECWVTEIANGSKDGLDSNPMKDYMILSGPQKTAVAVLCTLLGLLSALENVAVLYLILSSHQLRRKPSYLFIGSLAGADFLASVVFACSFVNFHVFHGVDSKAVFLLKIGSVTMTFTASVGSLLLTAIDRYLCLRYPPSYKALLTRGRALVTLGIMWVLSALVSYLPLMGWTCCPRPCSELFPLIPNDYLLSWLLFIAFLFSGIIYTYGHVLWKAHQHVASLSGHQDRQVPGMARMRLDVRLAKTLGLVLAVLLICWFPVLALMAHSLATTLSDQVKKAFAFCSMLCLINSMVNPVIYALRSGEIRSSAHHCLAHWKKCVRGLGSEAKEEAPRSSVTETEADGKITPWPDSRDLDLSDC

[6] = test system: Leishmania donovani; assay: Activity towards Leishmania donovani; type: cell-based

Delta opioid receptor, sequence (P41143 whole entry): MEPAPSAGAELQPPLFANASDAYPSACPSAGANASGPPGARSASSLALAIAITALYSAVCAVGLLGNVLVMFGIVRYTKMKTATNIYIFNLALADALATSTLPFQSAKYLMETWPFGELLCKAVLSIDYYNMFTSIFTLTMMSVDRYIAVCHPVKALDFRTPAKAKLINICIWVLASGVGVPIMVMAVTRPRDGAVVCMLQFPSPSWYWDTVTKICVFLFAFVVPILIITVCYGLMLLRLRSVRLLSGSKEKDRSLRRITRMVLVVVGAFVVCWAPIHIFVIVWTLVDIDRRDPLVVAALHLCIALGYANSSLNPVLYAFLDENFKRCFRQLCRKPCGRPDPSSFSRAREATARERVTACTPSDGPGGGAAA
Mu opioid receptor, sequence (P35372 whole entry): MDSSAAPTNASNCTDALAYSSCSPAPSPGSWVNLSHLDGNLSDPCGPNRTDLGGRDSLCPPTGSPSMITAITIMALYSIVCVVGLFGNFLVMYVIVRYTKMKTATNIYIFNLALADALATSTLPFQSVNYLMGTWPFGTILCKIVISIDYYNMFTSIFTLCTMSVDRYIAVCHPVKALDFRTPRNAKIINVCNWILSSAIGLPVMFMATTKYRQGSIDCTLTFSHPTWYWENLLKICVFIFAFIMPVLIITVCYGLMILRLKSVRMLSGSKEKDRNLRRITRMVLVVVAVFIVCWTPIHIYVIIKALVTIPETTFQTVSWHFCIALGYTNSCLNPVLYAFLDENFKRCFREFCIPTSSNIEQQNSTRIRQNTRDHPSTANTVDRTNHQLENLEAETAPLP

| Compound | inhibition towards Escherichia coli Pinh [1] [%] | IC50 ([1]; read-out: IC50 Escherichia coli) [µM] | displacement in Delta opioid receptor [2] [%] | displacement in Mu opioid receptor [3] [%] | inhibition towards Trypanosoma brucei [4] [%] | IC50 ([4]; Trypanosoma brucei, read-out: IC50 T. brucei) [µM] | IC50 [5] [µM] | displacement in CB2 receptor [5] [%] | activity towards Leishmania donovani [6] [%] | IC50 ([6]; Leishmania donovani, read-out: IC50 Leishmania donovani) [µM] |
| --- | --- | --- | --- | --- | --- | --- | --- | --- | --- | --- |
| myricitrin [Compound 11] | 99 | 1.12 |  |  |  |  |  |  |  |  |
| CC1=C[C@H](O)CC(C)(C)[C@H]1/C=C/C(C)=C/C=C/C(C)=C/C=C/C=C(C)/C=C/C=C(C)/C=C/C1=C(C)C[C@@H](O)CC1(C)C [Compound 4, lutein] |  |  | 65 | 49 | 93 | 4.16 | 56.5 | 73 | 48 | 9.3 |
